Experiments:
[1] = pKa measurement of the cationic lipid (TNS fluorescence vs pH); type: physicochemical; settings: probe TNS (fluorescent probe), Table 4; pKa of the cationic lipid of formula (I)
Description: Unless indicated otherwise, all pKa's referred to herein were measured at standard temperature and pressure. Also, unless otherwise indicated, all references to pKa are references to pKa measured using the following technique. 2 mM solution of lipid in ethanol was prepared by weighing the lipid and then dissolving it in ethanol. 0.3 mM solution of fluorescent probe TNS in ethanol:methanol 9:1 was prepared by first making 3 mM solution of TNS in methanol and then diluting to 0.3 mM with ethanol. An aqueous buffer containing 200 mM sodium phosphate dibasic and 100 mM citric acid was prepared. […] Using the Hamilton Microlab Star high throughput liquid handler and Hamilton run control software Software, 7.5 uL of probe/lipid mix were added to 242.5 uL of buffer in a 1 mL 96 well plate (model NUNC 260252, […] Nunc International). This was done with all twelve buffers. After mixing in 1 mL 96 well plate, 100 uL of each probe/lipid/buffer mixture was transferred to a 250 uL black with clear bottom 96 well plate (model COSTAR 3904, Corning). The fluorescence measurements are carried out on the SpectraMax M5 spectrophotometer using software SoftMax pro 5.2 and following parameters: After the measurement, the background fluorescence value of an empty well on the 96 well plate was subtracted from each probe/lipid/buffer mixture. The fluorescence intensity values were then normalized to the value at lowest pH. The normalized fluorescence intensity vs. pH chart was then plotted in the Microsoft Excel software. The twelve points were connected with a smooth line. The point on the line at which the normalized fluorescence intensity was equal to 0.5 was found. […] The pKa determined using this method is precise to about 0.1 pKa units.

[2] = Polydispersity index (PDI) of the lipid nanoparticle (dynamic light scattering); type: physicochemical; settings: Table 4; FVII siRNA LNP; Chol/DSPC/stealth lipid S010, 45/44/9/2
From the text: The lipid nanoparticles (LNPs) were formed by mixing equal volumes of lipids dissolved in alcohol with siRNA dissolved in a citrate buffer by an impinging jet process. […] The siRNA to total lipid ratio is approximately 0.05 (wt/wt). Where a LNP formulation contains four lipid components, the molar ratios correspond to the type of lipid as it appears in the first four columns of the table, in the order that they appear. The ratio of the lipids ranges from 20 to 70 mole percent for the cationic lipid with a target of 40-60, the mole percent of helper lipid ranges from 20 to 70 with a target of 30 to 50, the mole percent of neutral lipid ranges from 0-30, the mole percent of PEG lipid has a range from 1 to 6 with a target of 2 to 5. The concentration of siRNA solution ranges from 0.7 to 1.0 mg/mL with a target of 0.8 to 0.9 mg/mL in a sodium citrate: sodium chloride buffer pH 4-6, with a target of 4.5-5.5. The LNPs are formed by mixing equal volumes of lipid solution in ethanol with siRNA dissolved in a citrate buffer by an impinging jet process through a mixing device with ID ranging from 0.25 to 2.0 mm at a flow rate from 10 to 640 mL/min. The mixed LNP solution is held at room temperature for 0-24 hrs prior to a dilution step. […] The final product is sterile filtered and stored at 4° C. Unless indicated otherwise, all PDIs referred to herein are the PDI of the fully formed nanoparticle, as measured by dynamic light scattering on a Malvern Zetasizer. The nanoparticle sample was diluted in phosphate buffered saline (PBS) so that the count rate was approximately 200-400 kcts. The data is presented in Tables 4 and 5 as a weighted average of the intensity measure.

[3] = tested on: respiratory syncytial virus F protein; experiment: Immunization studies: anti-RSV-F titers after liposome-delivered vA317 self-replicating RNA; type: in vivo; settings: BALB/c mice, liposomes with 0.1 μg vA317 replicon (naked control 1 μg); for anti-RSV-F titer 2wp1 pool 1 / anti-RSV-F titer 2wp1 pool 2: 2 weeks after first dose; for anti-RSV-F titer 2wp2 pool 1 / anti-RSV-F titer 2wp2 pool 2: 2 weeks after second dose; for anti-RSV-F titer 4wp2 pool 1 / anti-RSV-F titer 4wp2 pool 2: 4 weeks after second dose
Description: BALB/c were immunized with liposomes comprising DSPC, cholesterol, and various lipids of the invention (or, for comparison, the cationic lipid 1,2-dilinoleyloxy-N,N-dimethyl-3-aminopropane or ‘DLinDMA’). The liposomes encapsulated 0.1 μg of “vA317” self-replicating RNA replicon which encodes respiratory syncytial virus F protein (see WO2012/031043). […] Doses were given either on days 0 & 21 or days 0 & 42. Immune responses were assessed 2 weeks after each dose (2wp1, 2wp2), and in some cases also at 4 weeks after the second dose (4wp2). Four series of experiments were performed, each with its own naked control.

| pKa [1] | Structure (SMILES) | anti-RSV-F titer 2wp1 pool 1 ([3]; Course A = days 0 & 21) | anti-RSV-F titer 2wp1 pool 2 ([3]; Course A = days 0 & 21) | anti-RSV-F titer 2wp2 pool 1 ([3]; Course A = days 0 & 21) | anti-RSV-F titer 2wp2 pool 2 ([3]; Course A = days 0 & 21) | anti-RSV-F titer 4wp2 pool 1 ([3]; Course A = days 0 & 21) | anti-RSV-F titer 4wp2 pool 2 ([3]; Course A = days 0 & 21) | other results |
| --- | --- | --- | --- | --- | --- | --- | --- | --- |
| 6.02 | CCCCC/C=C\C/C=C\CCCCCCCCOC(=O)CCCCOc1cc(CN(C)C)cc(OCCCCC(=O)OCCCCCCCC/C=C\C/C=C\CCCCC)c1 [Example 89] |  |  |  |  |  |  | PDI [2]: 0.076 |
|  | CCCCC/C=C\C/C=C\CCCCCCCCOc1cc(COC(=O)CCCN(C)C)cc(OCCCCCCCC/C=C\C/C=C\CCCCC)c1 [Example 13] | 495 | 620 | 7157 | 12316 |  |  |  |
| 5.57 | CCCCC/C=C\C/C=C\CCCCCCCC(=O)OCCCCCCOc1cc(CN(C)C)cc(OCCCCCCOC(=O)CCCCCCC/C=C\C/C=C\CCCCC)c1 [Example 45] |  |  |  |  |  |  |  |
|  | CCCCC/C=C\C/C=C\CCCCCCCC(=O)OCc1cc(COC(=O)CCCCCCC/C=C\C/C=C\CCCCC)cc(COC(=O)CCN(C)C)c1 [Example 29] | 2101 | 3584 | 12529 | 18669 | 23930 | 37278 |  |
|  | CCCCC/C=C\C/C=C\CCCCCCCCNC(=O)c1cc(COC(=O)CCCN(C)C)cc(C(=O)NCCCCCCCC/C=C\C/C=C\CCCCC)c1 [Example 66] | 75 | 75 | 75 | 75 | 75 | 75 |  |
| 5.94 | CCCCCCCCOC(=O)CCCCCCCC(=O)OCCCOc1cc(CN(C)C)cc(OCCCOC(=O)CCCCCCCC(=O)OCCCCCCCC)c1 [Example 98] |  |  |  |  |  |  | PDI [2]: 0.096 |
| 5.93 | CCCCCCCCC(CCCCCCCC)CC(=O)OCCCOc1cc(CN(C)C)cc(OCCCOC(=O)CC(CCCCCCCC)CCCCCCCC)c1 [Example 56] |  |  |  |  |  |  |  |
|  | CCCCCCCC/C=C\CCCCCCCCOc1cc(OCCCCCCCC/C=C\CCCCCCCC)cc(C2OCC(CN3CCCC3)O2)c1 (stereo not shown) [Example 9] | 1832 | 1352 | 29707 | 18788 |  |  |  |
|  | CCCCC/C=C\C/C=C\CCCCCCCC(=O)OCc1cc(COC(=O)CCCCCCC/C=C\C/C=C\CCCCC)cc(COC(=O)OCCN(C)C)c1 [Example 70] | 1416 | 3110 | 31550 | 20124 | 18779 | 18358 |  |
|  | CCCCC/C=C\C/C=C\CCCCCCCCOc1cc(COC(=O)OCCCN(C)C)cc(OCCCCCCCC/C=C\C/C=C\CCCCC)c1 [Example 68] | 1031 | 494 | 11315 | 7800 | 12963 | 17734 |  |
|  | CCCCCCCC/C=C\CCCCCCCCOc1cc(OCCCCCCCC/C=C\CCCCCCCC)cc(C2OCC(COC(=O)CN(C)C)O2)c1 (stereo not shown) [Example 12] |  |  |  |  |  |  | anti-RSV-F titer 2wp1 pool 1 ([3]; Course B = days 0 & 42): 88; anti-RSV-F titer 2wp1 pool 2 ([3]; Course B = days 0 & 42): 128; anti-RSV-F titer 2wp2 pool 1 ([3]; Course B = days 0 & 42): 4550; anti-RSV-F titer 2wp2 pool 2 ([3]; Course B = days 0 & 42): 4828; anti-RSV-F titer 4wp2 pool 1 ([3]; Course B = days 0 & 42): 4787; anti-RSV-F titer 4wp2 pool 2 ([3]; Course B = days 0 & 42): 3972 |
|  | CCCCC/C=C\C/C=C\CCCCCCCCOc1cc(CCCOC(=O)CCN(C)C)cc(OCCCCCCCC/C=C\C/C=C\CCCCC)c1 [Example 81] | 1779 | 1553 | 24648 | 15304 | 41921 | 34684 |  |
| 6.02 | CCCCC/C=C\C/C=C\CCCCCCCCOc1cc(CN(C)C)cc(OCCCCOC(=O)CCC(COC(=O)CCCCC)COC(=O)CCCCC)c1C [Example 104] |  |  |  |  |  |  |  |
| 5.9 | CCCCC/C=C\C/C=C\CCCCCCCC(=O)OCCOCCOc1cc(CN(CC)CC)cc(OCCOCCOC(=O)CCCCCCC/C=C\C/C=C\CCCCC)c1 [Example 58] |  |  |  |  |  |  |  |
